Measured values taken from patent publication US12371454B2, “Cyclic peptide compound having Kras inhibitory action” (priority 2019, dated 2025).
Starred links: 1 amine or outer side, 2 acyl side, 3 side chain; linkers in the order of their positions; H or OH if unused. Positions of bridges follow the written chain, without caps; N, C: chain ends. Non-standard residues stand in square brackets, D forms with d. Residues, ends and D or L forms follow the SMILES beside them. *: point of attachment. hPhe(3-Cl-4-CF3) = N[C@@H](CCc1ccc(C(F)(F)F)c(Cl)c1)C(=O)O; hPhe(3-F,4-CF3) = N[C@@H](CCc1ccc(C(F)(F)F)c(F)c1)C(=O)O; X38 = CN([C@@H](Cc1cccc(OC(F)(F)F)c1)C(=O)[*:2])[*:1]; NMePhe(3-CF3) = CN[C@@H](Cc1cccc(C(F)(F)F)c1)C(=O)O; NMePhe(4-CF3) = CN[C@@H](Cc1ccc(C(F)(F)F)cc1)C(=O)O; NMePhe(3-Br) = CN[C@@H](Cc1cccc(Br)c1)C(=O)O; NMePhe(3-Me) = CN[C@@H](Cc1cccc(C)c1)C(=O)O; NMePhe(2-Cl) = CN[C@@H](Cc1ccccc1Cl)C(=O)O; NMePhe(3-F) = CN[C@@H](Cc1cccc(F)c1)C(=O)O; NMeAla(cPent) = CN[C@@H](CC1CCCC1)C(=O)O; NMePhe(2-F) = CN[C@@H](Cc1ccccc1F)C(=O)O; NMeGly(cPent) = CN[C@H](C(=O)O)C1CCCC1; NMeCha = CN[C@@H](CC1CCCCC1)C(=O)O; NMeGly(cPr) = CN[C@H](C(=O)O)C1CC1; NMehLeu = CN[C@@H](CCC(C)C)C(=O)O; NMeChg = CN[C@H](C(=O)O)C1CCCCC1; NMeD = CN[C@@H](CC(=O)O)C(=O)O; NMeL = CN[C@@H](CC(C)C)C(=O)O; NMeV = CN[C@H](C(=O)O)C(C)C; d(β3hA) = C[C@@H](N)CC(=O)O; NMeS = CN[C@@H](CO)C(=O)O; NMeA = CN[C@@H](C)C(=O)O; Piperidide = C1CCN(*)CC1; dNMeA = CN[C@H](C)C(=O)O; Ac5c = NC1(C(=O)O)CCCC1; Aze = O=C(O)[C@@H]1CCN1; CH2CMe2OH = CC(C)(O)C*; Aib = CC(C)(N)C(=O)O; Isopentyl = CC(C)CC*; Sar = CNCC(=O)O

Target: T1, Kras and SOS1 (biotin-tagged human Kras loaded with GDP, His-tagged human SOS1) (Homo sapiens, UniProt P01116, G12D)
T1 construct: made in house; host or cells: E. coli (stated for Kras only)
T1 sequence (P01116 1-188 isoform P01116-2 G12D): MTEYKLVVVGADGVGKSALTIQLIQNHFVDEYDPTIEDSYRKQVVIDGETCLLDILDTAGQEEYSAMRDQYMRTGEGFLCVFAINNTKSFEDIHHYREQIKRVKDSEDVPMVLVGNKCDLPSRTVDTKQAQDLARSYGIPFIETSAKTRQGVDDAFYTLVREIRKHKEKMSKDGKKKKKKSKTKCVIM
Experiment: Protein-protein interaction inhibition between Kras and SOS1 (KrasGl2D-SOS PPI) using AlphaScreen
Format: binding
Settings: AlphaScreen; biotin-tagged human Kras loaded with GDP, His-tagged human SOS1; read-out: KRAS G12D-SOS PPI IC50
How it was run: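 Energy transfer from nickel-chelate donor beads bound to His-SOS1 to streptavidin acceptor beads bound to biotin-Kras, expressed in E. coli and loaded with GDP after purification, was monitored. Donors were excited at 680 nm; singlet oxygen reaching acceptors gave emission read at 520-620 nm.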

| SMILES | IC50 [nM] |
| --- | --- |
| CC[C@H](C)[C@@H]1NC(=O)[C@H](CC(C)C)N(C)C(=O)C[C@@H](C)NC(=O)[C@H](C2CCCC2)N(C)C(=O)C2(CCCC2)NC(=O)[C@@H]2CCCN2C(=O)[C@H](CCc2ccc(C(F)(F)F)c(Cl)c2)NC(=O)[C@@H](C)N(C)C(=O)[C@H](Cc2ccc(C(F)(F)F)cc2)N(C)C(=O)CN(C)C(=O)CN(C)C1=O [Compound 1542] (cyclo([Ac5c][NMeGly(cPent)][d(β3hA)][NMeL]I[Sar][Sar][NMePhe(4-CF3)][dNMeA][hPhe(3-Cl-4-CF3)]P)) | 170 |
| CC[C@H](C)[C@@H]1NC(=O)[C@H](C)N(C)C(=O)C[C@@H](C)NC(=O)[C@H](C2CCCC2)N(C)C(=O)C2(CCCC2)NC(=O)[C@@H]2CCCN2C(=O)[C@H](CCc2ccc(C(F)(F)F)c(Cl)c2)NC(=O)[C@H]2CCCN2C(=O)[C@H](CC2CCCCC2)N(C)C(=O)CN(C)C(=O)CN(C)C1=O [Compound 1543] (cyclo([Ac5c][NMeGly(cPent)][d(β3hA)][NMeA]I[Sar][Sar][NMeCha][dP][hPhe(3-Cl-4-CF3)]P)) | 160 |
| CC[C@H](C)[C@@H]1NC(=O)[C@H](CC(C)C)N(C)C(=O)C[C@@H](C)NC(=O)[C@H](CC(C)C)N(C)C(=O)C2(CCCC2)NC(=O)[C@@H]2CCN2C(=O)[C@H](CCc2ccc(C(F)(F)F)c(F)c2)NC(=O)CN(C)C(=O)[C@H](CC2CCCCC2)N(C)C(=O)CN(C)C(=O)CN(C)C1=O [Compound 1545] (cyclo([Ac5c][NMeL][d(β3hA)][NMeL]I[Sar][Sar][NMeCha][Sar][hPhe(3-F,4-CF3)][Aze])) | 42 |
| CC[C@H](C)[C@@H]1NC(=O)[C@H](CC(C)C)N(C)C(=O)C[C@@H](C)NC(=O)[C@H](CC(C)C)N(C)C(=O)C(C)(C)NC(=O)[C@H](COCC(C)(C)O)N(C)C(=O)[C@H](CCc2ccc(C(F)(F)F)c(Cl)c2)NC(=O)CN(C)C(=O)[C@H](COCCC(C)C)N(C)C(=O)CN(C)C(=O)CN(C)C1=O [Compound 1546] (cyclo([Aib][NMeL][d(β3hA)][NMeL]I[Sar][Sar][NMeS](Isopentyl)[Sar][hPhe(3-Cl-4-CF3)][NMeS](CH2CMe2OH))) | 40 |
| CC[C@H](C)[C@@H]1NC(=O)[C@H](CC(C)C)N(C)C(=O)C[C@@H](C)NC(=O)[C@H](C(C)C)N(C)C(=O)C2(CCCC2)NC(=O)[C@@H]2CCCN2C(=O)[C@H](CCc2ccc(C(F)(F)F)c(Cl)c2)NC(=O)CN(C)C(=O)[C@H](Cc2cccc(C)c2)N(C)C(=O)CN(C)C(=O)CN(C)C1=O [Compound 1547] (cyclo([Ac5c][NMeV][d(β3hA)][NMeL]I[Sar][Sar][NMePhe(3-Me)][Sar][hPhe(3-Cl-4-CF3)]P)) | 22 |
| CC[C@H](C)[C@@H]1NC(=O)[C@H](CC(C)C)N(C)C(=O)C[C@@H](C(=O)N2CCCCC2)N(C)C(=O)[C@H](C(C)C)N(C)C(=O)C2(CCCC2)NC(=O)[C@@H]2CCCN2C(=O)[C@H](CCc2ccc(C(F)(F)F)c(Cl)c2)NC(=O)CN(C)C(=O)[C@H](CC2CCCCC2)N(C)C(=O)[C@@H]2CCN2C(=O)[C@H](CC2CCCC2)N(C)C1=O [Compound 1552] ([NMeL]I[NMeAla(cPent)][Aze][NMeCha][Sar][hPhe(3-Cl-4-CF3)]P[Ac5c][NMeV][NMeD]-Piperidide; lactam N-11) | 61 |
| CC[C@H](C)[C@@H]1NC(=O)[C@H](CC(C)C)N(C)C(=O)C[C@@H](C(=O)N2CCCCC2)N(C)C(=O)[C@H](C(C)C)N(C)C(=O)C2(CCCC2)NC(=O)[C@@H]2CCCN2C(=O)[C@H](CCc2ccc(C(F)(F)F)c(Cl)c2)NC(=O)CN(C)C(=O)[C@H](CC2CCCCC2)N(C)C(=O)[C@@H]2CCN2C(=O)[C@H](C2CC2)N(C)C1=O [Compound 1553] ([NMeL]I[NMeGly(cPr)][Aze][NMeCha][Sar][hPhe(3-Cl-4-CF3)]P[Ac5c][NMeV][NMeD]-Piperidide; lactam N-11) | 12 |
| CC[C@H](C)[C@@H]1NC(=O)[C@H](CC(C)C)N(C)C(=O)C[C@@H](C)NC(=O)[C@H](C(C)C)N(C)C(=O)C2(CCCC2)NC(=O)[C@@H]2CCCN2C(=O)[C@H](CCc2ccc(C(F)(F)F)c(Cl)c2)NC(=O)CN(C)C(=O)[C@H](Cc2cccc(F)c2)N(C)C(=O)CN(C)C(=O)CN(C)C1=O [Compound 1556] (cyclo([Ac5c][NMeV][d(β3hA)][NMeL]I[Sar][Sar][NMePhe(3-F)][Sar][hPhe(3-Cl-4-CF3)]P)) | 17 |
| CC[C@H](C)[C@@H]1NC(=O)[C@H](CC(C)C)N(C)C(=O)C[C@@H](C)NC(=O)[C@H](C(C)C)N(C)C(=O)C2(CCCC2)NC(=O)[C@@H]2CCCN2C(=O)[C@H](CCc2ccc(C(F)(F)F)c(Cl)c2)NC(=O)CN(C)C(=O)[C@H](Cc2cccc(OC(F)(F)F)c2)N(C)C(=O)CN(C)C(=O)CN(C)C1=O [Compound 1573] (cyclo([Ac5c][NMeV][d(β3hA)][NMeL]I[Sar][Sar][X38][Sar][hPhe(3-Cl-4-CF3)]P)) | 57 |
| CC[C@H](C)[C@@H]1NC(=O)[C@H](CC(C)C)N(C)C(=O)C[C@@H](C)NC(=O)[C@H](C(C)C)N(C)C(=O)C2(CCCC2)NC(=O)[C@@H]2CCCN2C(=O)[C@H](CCc2ccc(C(F)(F)F)c(Cl)c2)NC(=O)CN(C)C(=O)[C@H](Cc2cccc(C(F)(F)F)c2)N(C)C(=O)CN(C)C(=O)CN(C)C1=O [Compound 1575] (cyclo([Ac5c][NMeV][d(β3hA)][NMeL]I[Sar][Sar][NMePhe(3-CF3)][Sar][hPhe(3-Cl-4-CF3)]P)) | 45 |
| CC[C@H](C)[C@@H]1NC(=O)[C@H](CC(C)C)N(C)C(=O)C[C@@H](C(=O)N2CCCCC2)N(C)C(=O)[C@H](C(C)C)N(C)C(=O)C2(CCCC2)NC(=O)[C@@H]2CCCN2C(=O)[C@H](CCc2ccc(C(F)(F)F)c(Cl)c2)NC(=O)CN(C)C(=O)[C@H](CC2CCCCC2)N(C)C(=O)[C@@H]2CCN2C(=O)[C@H](CCC(C)C)N(C)C1=O [Compound 1577] ([NMeL]I[NMehLeu][Aze][NMeCha][Sar][hPhe(3-Cl-4-CF3)]P[Ac5c][NMeV][NMeD]-Piperidide; lactam N-11) | 50 |
| CC[C@H](C)[C@@H]1NC(=O)[C@H](C)N(C)C(=O)C[C@@H](C(=O)N2CCCCC2)N(C)C(=O)[C@H](C(C)C)N(C)C(=O)C2(CCCC2)NC(=O)[C@@H]2CCCN2C(=O)[C@H](CCc2ccc(C(F)(F)F)c(Cl)c2)NC(=O)CN(C)C(=O)[C@H](CC2CCCCC2)N(C)C(=O)[C@@H]2CCN2C(=O)[C@H](CC2CCCCC2)N(C)C1=O [Compound 1580] ([NMeA]I[NMeCha][Aze][NMeCha][Sar][hPhe(3-Cl-4-CF3)]P[Ac5c][NMeV][NMeD]-Piperidide; lactam N-11) | 11 |
| CC[C@H](C)[C@@H]1NC(=O)[C@H](CC(C)C)N(C)C(=O)C[C@@H](C)NC(=O)[C@H](C(C)C)N(C)C(=O)C2(CCCC2)NC(=O)[C@@H]2CCCN2C(=O)[C@H](CCc2ccc(C(F)(F)F)c(Cl)c2)NC(=O)CN(C)C(=O)[C@H](CC2CCCCC2)N(C)C(=O)[C@@H]2CCN2C(=O)[C@H](CC2CCCCC2)N(C)C1=O [Compound 1581] (cyclo([Ac5c][NMeV][d(β3hA)][NMeL]I[NMeCha][Aze][NMeCha][Sar][hPhe(3-Cl-4-CF3)]P)) | 230 |
| CC[C@H](C)[C@@H]1NC(=O)[C@H](CC(C)C)N(C)C(=O)C[C@@H](C)NC(=O)[C@H](C(C)C)N(C)C(=O)C2(CCCC2)NC(=O)[C@@H]2CCCN2C(=O)[C@H](CCc2ccc(C(F)(F)F)c(Cl)c2)NC(=O)CN(C)C(=O)[C@H](COc2ccccc2Cl)N(C)C(=O)CN(C)C(=O)CN(C)C1=O [Compound 1582] | 35 |
| CC[C@H](C)[C@@H]1NC(=O)[C@H](CC(C)C)N(C)C(=O)C[C@@H](C)NC(=O)[C@H](C(C)C)N(C)C(=O)C2(CCCC2)NC(=O)[C@@H]2CCCN2C(=O)[C@H](CCc2ccc(C(F)(F)F)c(Cl)c2)NC(=O)CN(C)C(=O)[C@H](Cc2ccccc2F)N(C)C(=O)CN(C)C(=O)CN(C)C1=O [Compound 1585] (cyclo([Ac5c][NMeV][d(β3hA)][NMeL]I[Sar][Sar][NMePhe(2-F)][Sar][hPhe(3-Cl-4-CF3)]P)) | 43 |
| CC[C@H](C)[C@@H]1NC(=O)[C@H](CC(C)C)N(C)C(=O)C[C@@H](C)NC(=O)[C@H](C(C)C)N(C)C(=O)C2(CCCC2)NC(=O)[C@@H]2CCCN2C(=O)[C@H](CCc2ccc(C(F)(F)F)c(Cl)c2)NC(=O)CN(C)C(=O)[C@H](Cc2cccc(Br)c2)N(C)C(=O)CN(C)C(=O)CN(C)C1=O [Compound 1587] (cyclo([Ac5c][NMeV][d(β3hA)][NMeL]I[Sar][Sar][NMePhe(3-Br)][Sar][hPhe(3-Cl-4-CF3)]P)) | 31 |
| CC[C@H](C)[C@@H]1NC(=O)[C@H](CC(C)C)N(C)C(=O)C[C@@H](C)NC(=O)[C@H](C(C)C)N(C)C(=O)C2(CCCC2)NC(=O)[C@@H]2CCCN2C(=O)[C@H](CCc2ccc(C(F)(F)F)c(Cl)c2)NC(=O)CN(C)C(=O)[C@H](Cc2ccccc2Cl)N(C)C(=O)CN(C)C(=O)CN(C)C1=O [Compound 1591] (cyclo([Ac5c][NMeV][d(β3hA)][NMeL]I[Sar][Sar][NMePhe(2-Cl)][Sar][hPhe(3-Cl-4-CF3)]P)) | 97 |
| CC[C@H](C)[C@@H]1NC(=O)[C@H](C)N(C)C(=O)C[C@@H](C(=O)N2CCCCC2)N(C)C(=O)[C@H](C(C)C)N(C)C(=O)C2(CCCC2)NC(=O)[C@@H]2CCCN2C(=O)[C@H](CCc2ccc(C(F)(F)F)c(Cl)c2)NC(=O)CN(C)C(=O)[C@H](CC2CCCCC2)N(C)C(=O)[C@@H]2CCN2C(=O)[C@H](CCC(C)C)N(C)C1=O [Compound 1595] ([NMeA]I[NMehLeu][Aze][NMeCha][Sar][hPhe(3-Cl-4-CF3)]P[Ac5c][NMeV][NMeD]-Piperidide; lactam N-11) | 15 |
| CC[C@H](C)[C@@H]1NC(=O)[C@H](CC(C)C)N(C)C(=O)C[C@@H](C(=O)N2CCCCC2)N(C)C(=O)[C@H](C(C)C)N(C)C(=O)C2(CCCC2)NC(=O)[C@@H]2CCCN2C(=O)[C@H](CCc2ccc(C(F)(F)F)c(Cl)c2)NC(=O)CN(C)C(=O)[C@H](CC2CCCCC2)N(C)C(=O)[C@@H]2CCN2C(=O)[C@H](C2CCCCC2)N(C)C1=O [Compound 1600] ([NMeL]I[NMeChg][Aze][NMeCha][Sar][hPhe(3-Cl-4-CF3)]P[Ac5c][NMeV][NMeD]-Piperidide; lactam N-11) | 310 |
